Reference: PMC12622802, “Potent kinase inhibitors from the Merck KGaA OGHL: Novel hits against Trypanosoma brucei with potential for repurposing” (PLOS Neglected Tropical Diseases, 2025)
Entries after “also recorded” stand apart in the source; their conditions may differ. Where two headings read alike, the source gives them in different places.

Tests used:
[1] = HAT regimens; cited from earlier work
normal cells = test system: normal cells; parameters: method as in ref 37 = [37]; 37 Dorsch D , Wucherer-Plietker M , Mueller TJ , Merkul E . 3-([1,2,3]triazole-4-yl)-pyrrolo[2,3-b]pyridine derivates . World Intellectual Property Organization . 2010 . https://patents.google.com/pat; details: cited from earlier work
[2] = Cytotoxicity, resazurin reduction assay, HepG2; type: cell-based, human; details: human
Experimental: Vero E6 (African green monkey kidney), Raw264.7 (murine macrophages) and HepG2 (human hepatocyte carcinoma) cell lines, sourced from the American Type Culture Collection, were cultured in DMEM supplemented with 10% (v/v) heat-inactivated fetal bovine serum, 1% (v/v) non-essential amino acids, and 1% (v/v) penicillin-streptomycin. Cells were maintained at 37 °C in a 5% CO2 atmosphere. For cytotoxicity testing, they were seeded (90 µL) in 96-well plates at a density of 1x10^4 cells/well, in duplicate, and allowed to adhere overnight. Serial dilutions (50-0.08 µM) of the compounds were prepared, and 10 µL of each were incubated with the monolayer for 48 hours. Podophyllotoxin was tested as a positive control at 10 μM and 0.5% DMSO (100% cell viability) was used as negative control. Cell viability was then assessed using the resazurin reduction assay, as described above. The 50% cytotoxic concentration (CC50) was calculated using GraphPad Prism software (version 8.0), and selectivity indices (SIs) were determined by dividing the […].
Data were analysed using Microsoft Excel and GraphPad Prism 8.0. Nonlinear regression with a sigmoidal dose-response fit model was applied to the data to determine IC50 and CC50 values. Results represent the mean ± standard deviation (SD) from two independent experiments performed in duplicate.

[3] = test system: bloodstream forms of T. b. brucei; test: Rescue experiment (4 h exposure, washout, drug-free medium); type: cell-based, Trypanosoma brucei brucei; details: 72 hours monitoring, 4xIC50 and 8xIC50
Experimental: (§1) To evaluate the killing kinetics of selected compounds, bloodstream forms of T. b. brucei (2 x 10⁵ cells/mL) were incubated in normal culture conditions in the presence of compounds at 8IC50, 4IC50, IC50, and 0.25IC50 concentrations in 24-well plates. Upon incubation, cultures were centrifuged at 0, 4, 8, 12, 24, 30, 36, 48, 60, and 72 hours’ time intervals at 2,500 rpm followed by motile trypanosomes enumeration using a Lumascope LS520 inverted microscope. To determine the mode of inhibition (parasitostatic or parasiticidal), a rescue experiment was conducted. Trypanosomes were exposed to the test doses (8IC50, 4IC50, IC50, and 0.25IC50) of the compounds for 4 hours. They were then washed three times with phosphate buffer saline (DPBS 1X), centrifuged at 2,500 rpm for 7 minutes, and resuspended in complete drug-free medium. These parasites were cultured under the same conditions, and motile organisms were enumerated with the Neubauer chamber at regular intervals over 72 hours. Data were plotted using GraphPad Prism 8.0 to determine the inhibition kinetics and classify the inhibitors as cidal or static. Pentamidine isethionate served as the reference compound and experiments were performed in duplicate.

[4] = Cytotoxicity, resazurin reduction assay, Raw264.7; type: cell-based, murine; details: mouse
Experimental: (§2) For cytotoxicity testing, they were seeded (90 µL) in 96-well plates at a density of 1x10^4 cells/well, in duplicate, and allowed to adhere overnight. […] Cell viability was then assessed using the resazurin reduction assay, as described above. […] Data were analysed using Microsoft Excel and GraphPad Prism 8.0. Nonlinear regression with a sigmoidal dose-response fit model was applied to the data to determine IC50 and CC50 values. Results represent the mean ± standard deviation (SD) from two independent experiments performed in duplicate.

[5] = test system: bloodstream forms of T. b. brucei; test: Trypanosome killing kinetics (time-kill assay); type: cell-based, Trypanosoma brucei brucei; details: 8IC50, 4IC50, IC50, 0.25IC50; over 72 hours
Experimental: as §1

[6] = test system: bloodstream forms of T. b. brucei Lister 427; test: Resazurin reduction growth inhibition assay against bloodstream forms of T. b. brucei; type: cell-based, Trypanosoma brucei brucei; details: 72 hours, read-out: IC50 ± SD (µM) T. b. b.
Experimental: Bloodstream forms of T. b. brucei Lister 427, a virulent laboratory strain of Trypanosoma brucei were cultured in HMI-9 medium as previously described. […] The resulting signal measured between 570 nm and 590 nm, is directly proportional to the quantity of viable parasites. […] After incubation, a working solution of resazurin (0.15 mg/mL in DPBS) was added to the plates in a 1:10 (v/v) ratio, followed by incubation for 4 hours at 37 °C with 5% CO2. Fluorescence was measured using an Infinite M200 microplate reader (Tecan) at excitation and emission wavelengths of 530 nm and 590 nm, respectively. Compound achieving ≥ 50% inhibition of trypanosomes were selected for further dose-response studies.
Compounds that adhered to the cutoff criterion (≥ 50% inhibition) were serially diluted and tested for their half-maximal inhibitory concentrations (IC50). […] Dose-response curves were generated using GraphPad Prism software (version 8.0). […]
Data were analysed using Microsoft Excel and GraphPad Prism 8.0. Nonlinear regression with a sigmoidal dose-response fit model was applied to the data to determine IC50 and CC50 values.

[7] = Cytotoxicity, resazurin reduction assay, Vero; type: cell-based; details: African green monkey
Experimental: as §2

[8] = target: TANK-binding kinase 1 (TBK1); parameters: method as in ref 37 = [37]; 37 Dorsch D , Wucherer-Plietker M , Mueller TJ , Merkul E . 3-([1,2,3]triazole-4-yl)-pyrrolo[2,3-b]pyridine derivates . World Intellectual Property Organization . 2010 . https://patents.google.com/pat; details: cited from earlier work

**Q.** Which “fatal encephalopathy, percentage of cases” value [1] does the source give for Nc1nc(N)nc(Nc2ccc([As]3SCC(CO)S3)cc2)n1 (centres unmarked) [melarsoprol] here?
**A.** 5–10%

**Q.** Which results are given for Cn1cc(-c2cnc3[nH]cc(-c4cn(Cc5cccc(F)c5F)nn4)c3c2)cn1 [OGHL00169, 3-(1-(2,3-difluorobenzyl)-1H-1,2,3-triazol-4-yl)-5-(1-methyl-1H-pyrazol-4-yl)-1H-pyrrolo[2,3-b]pyridine]?
**A.** CC50 (normal cells): 1 to 10 µM; CC50 at 48 h [2]: 50 µM; effect after short exposure and washout (reversible or irreversible) [3]: irreversible trypanocidal activity; also recorded: irreversible trypanocidal effects; CC50 at 48 h [4]: 12.1 ± 1.6 µM; activity profile in time-kill assay (trypanocidal or cytostatic) [5]: strong trypanocidal activity; IC50 ([6]; Trypanosoma brucei, 72 h, confirmation screen, powdered form): 0.25 ± 0.04 µM; IC50 ([6]; Trypanosoma brucei, 72 h, primary screen, DMSO stock solution, bloodstream form T. b. brucei Lister 427): ≤ 1 µM; IC50 ([6]; primary screen, DMSO stock solution, bloodstream form T. b. brucei Lister 427): 0.85 ± 0.02 µM; CC50 at 48 h [7]: 2800 ± 30 nM; IC50 [8]: 0.196 nM
